We go through four molecules from patent US7338669B2, “Inorganic boranophosphate salts” (Bar-Ilan University, priority 2005, dated 2008).

The conditions of data set [1]: comparison value quoted in the text; cited from earlier work.
The procedure of data set [2]:
The ^31P NMR chemical shift was monitored as a function of the pH. A five-parameter sigmoid function was fitted to the data using Sigma Plot 2000 (SPSS, Inc.): δ=δ0+a/[1+e^−((pH-pH0)/b)]^c The inflection point, which is determined by the second derivative of the fitted sigmoid function, is the pKa value.
The acid-base character of BPi was studied by ^31P NMR—monitored pH-titration, as described in Experimental, (v).

Data set [3] is described as follows: Stability of BPi towards selected organic and inorganic reagents (31P NMR). In kind it is physicochemical. An excerpt: The reactivity of BPi towards various organic and inorganic reagents was explored as part of the characterization of BPi's chemical nature. These reagents include: aqueous acid solution, nitrile, amide, carbodiimide, pyridine and imidazole, tosyl chloride, phosphorous oxychloride, H2, and Zn^2+ and Mg^2+ ions.
Although BH3, in complexes with a variety of sulfur/amine/oxygen compounds, is an efficient reducing agent, its reducing nature is drastically altered in Bpi. For instance, while hydrid transfer from “BH3” to water occurs readily, the BH3 moiety in BPi transfers hydride only in a highly acidic solution (pH<2). Likewise, while BH3.
A carbodiimide reagent is used for the condensations of phosphate to provide the corresponding phosphoric anhydride. […] This finding is in contrast to diethylphosphite (cyano- or methoxycarbonyl)borane analogues, which are stable to dicyclohexylecarbodiimide (DCC) (Vyakaranam et al., 2002).
The reactivity of BPi with imidazole and pyridine was studied. […] The reaction of 5′-DMT-2′-deoxy-thymidine with tetramethyl boranopyrophosphate in the presence of N-methylimidazole was reported to proceed with the partial removal of the borane group. Likewise, when pyridine was used as a solvent, partial removal of the borane group was observed (Wada et al., 2002).
The presence of divalent metal ions such as Zn^2+ and Mg^2+ in DMF and water for 48 h and 4 h, respectively, left BPi unchanged.

The nature of data set [4]: Solubility of BPi salts in water and organic solvents. In kind it is physicochemical.
A short description of data set [5]: Stability / decomposition rate of BPi in aqueous solution at different pH, monitored by 31P NMR. In kind it is physicochemical. As to the method: The decomposition rate was determined by measuring changes in the integration of the respective NMR signals within 96 h.
BPi is stable in neutral and basic solutions.
The borane reacts with water to liberate hydrogen gas and boric acid.

Consider `O=[PH](O)O` [phosphorus acid], for which, in data set [1], the “pKa, higher of the two comparison values” is recorded as 6.2 and the “pKa, lower of the two comparison values (phosphoric acid: second protonation equilibrium)” value was 1.8.

With Ammonium Boranophosphate [Compound 2a], in data set [2], the “pKa (first inflection point)” value is given as 7.12 and the “pKa (second inflection point)” value is listed as 12.54. Besides, the “degraded to phosphorus acid (P—B bond cleavage)” value in data set [3] (excess EDC, water pH 6.5, 37° C., 4 h, 31P NMR) turned out to be 72%.

On to “Tributylammonium Boranophosphate [Compound 2b]”, for which the “solubility in organic solvents” value in data set [4] (organic solvents such as MeOH, CH3CN, DMF, CHCl3) is given as “dissolves only in organic solvents”.

inorganic boranophosphate [BPi]: in data set [4] (in water), the water solubility result was “high water solubility”. The “stability in neutral and basic solutions” value in data set [5] (neutral and basic solutions) is recorded as “stable”. In addition, in data set [5] (pH 2, room temperature, 31P NMR), the “t1/2 of degradation to phosphorus acid” value came to 11.5 days. The “rate of degradation to phosphorus acid” value in data set [5] (pH 2, room temperature, 31P NMR, R^2=1.00) came to 7e-07 s⁻¹. For the same molecule, the “degradation observed by 31P NMR” value in data set [5] (pH 13.7, 48 h, room temperature) is “no degradation”. Further, the “behaviour under highly acidic conditions” value in data set [5] (pH<2, H2 evolved, boric acid and phosphorus acid formed) is listed as “the P—B bond is cleaved”. Further, the “stability in acidic solution” value in data set [5] (pH>2) was “relatively stable”. In data set [3] (2 or 10 equiv. imidazole in CD3OD, 96 h, 31P NMR), the stability with imidazole entry is reported as “remained unchanged”. Further, in data set [3] (Zn^2+ and Mg^2+ in DMF and water for 48 h and 4 h, respectively), the “stability with divalent metal ions” value is listed as “unchanged”. Further, the “stability in acetonitrile and dimethyl formamide” value in data set [3] (acetonitrile and dimethyl formamide solutions, no reduction of the solvent) is listed as “complete stability”. In addition, the stability in pyridine entry in data set [3] (solution in pyridine, 113 h) is reported as “negligible cleavage of the P—B bond”.
